Patent publication US20200181284A1, “EPIGENETIC INHIBITORS FOR SENSITIZING HEMATOLOGIC OR OTHER MALIGNANCIES TO GLUCOCORTICOID THERAPY” (UNIVERSITY OF SOUTHERN CALIFORNIA, priority 2017, published 2020)

Experiments:
EHMT2 phosphorylation = assay: Phosphorylation of EHMT2 in NALM-6 cells (pan ph-T immunoprecipitation, EHMT2 immunoblot); format: cell-based, human; conditions: NALM-6, 16 nM AZD2811, 24 h
Protocol: (§1) Cells were treated as indicated, and cell extracts were prepared in RIPA buffer ([…] Tris-HCl, pH 8, 150 mM NaCL, 1 mM EDTA, 1% NP-40, and 0.25% deoxycholate) supplemented with protease inhibitor tablets (Roche Molecular Biochemicals) and phosphatase inhibitors (1 mM NaF, 1 mM Na3VO4, and 1 mM β-glycerophosphate). Protein extracts were incubated overnight at 4° C. with shaking with 1 μg of antibodies against EHMT2 (Sigma G6919), EHMT1 (Millipore 09-078), or pan phospho-threonine (Millipore AB1607). Protein A/G plus agarose beads (Santa Cruz sc-2003) were added, and the mixture was incubated 2 h at 4° C. The immunoprecipitates were separated on SDS-PAGE. […]
FIGS. 48A, 48B, 48C, 48D, 48E, and 48F show the effect of AURKB inhibitors on EHMT2 phosphorylation and dex-induced cell death. […] In each condition, the value measured with dex was normalized to the fluorescence value measured with ethanol. Percentage of survival is shown as the mean±SEM of 4 independent experiments and p-values for individual dex concentrations were calculated using a paired t-test. *p≤0.05, **p≤0.01, * * *p≤0.001. […] EC50s were calculated as the concentration at which half the cells remained alive, compare to vehicle controls. Error bars depict the SEM of 4 independent experiments and p-value was calculated to compare ZM treatment to DMSO using a paired t-test **p≤0.01, * * *p≤0.001. […]

[1] = tested on: LAX7R and LAX56 primary human B-ALL cells; assay: Survival of primary B-ALL cells co-cultured with OP-9 feeder cells (Annexin V/7AAD); format: cell-based
Protocol: Primary ALL cells (LAX7R and LAX56) were established from mouse xenografts derived from patient samples (Adam et al., 2017; Hsieh et al., 2013). They were cultured in 24 well tissue-culture plates on irradiated OP-9 cells with growth medium containing MEM-α with 20% heat-inactivated fetal bovine serum, and 100 IU/ml penicillin and 100 μg/ml streptomycin. On day 3 and day 5 after the addition of drugs, ALL cells were collected, and apoptosis was assessed using PE Annexin V Apoptosis Detection Kit with 7-AAD.
As shown FIGS. 41A-1, 41A-2, 41B-1, and 41B-2, LAX7R (FIGS. 41A-1 and 41A-2) or LAX56 (FIGS. 41B-1 and 41B-2) primary human B-ALL cells were co-cultured with OP-9 feeder cells for 3 days (left) or 5 days (right) in the presence of the indicated drugs, and cell survival was determined by staining with Annexin/7AAD. p-value was calculated using a paired t-test, and different symbols were used to indicate p-values between different groups.+indicates statistical significance (+p≤0.05, ++p≤0.01 and + + + p≤0.001) between Dexamethasone or AZD2811 treated group and DMSO control group; # indicates statistical significance (#p≤0.05, ##p≤0.01 and # # # p≤0.001) between AZD2811+Dexamethasone combination group and AZD2811 group; * indicates statistical difference (*p≤0.05, **p≤0.01, * * *p≤0.001) between combination group and respective Dexamethasone treated groups. Values shown are mean and SD for 3 biological replicates, which are representative of 3 independent experiments.

NALM6 cells [2] = assay: Immunoblot of apoptosis markers (cleaved caspase 3, caspase 7, PARP1) in NALM6 cells; format: cell-based, human; conditions: 16 nM AZD2811 pretreatment 24 h, then 100 nM dex 24 h
Protocol: as §1
FIGS. 40A, 40B, 40C, 40D-1, 40D-2, 40D-3, and 40D-4 show Aurora kinase B inhibitors sensitizing NALM6 cells to GC-induced cell death. As shown in FIGS. 40A and 40B, NALM6 cells were treated with the indicated dex concentration in addition to 0.75 μM ZM447439 (FIG. 40A), 16 nM AZD2811 (FIG. 40B), or equivalent volume of vehicle DMSO for 72 h, and cell survival was measured by a fluorescence metabolic assay. In each condition, the value measured with dex was normalized to the fluorescence value measured with ethanol. Percentage of survival is shown as the mean±SEM of 4 independent experiments and p-values for individual dex concentrations were calculated using a paired t-test. *p≤0.05, **p≤0.01, * * *p≤0.001. […]

[3] = tested on: GR target genes in NALM6 cells; assay: RT-qPCR of GR target genes in NALM6 cells; format: cell-based, human; conditions: NALM6, 16 nM AZD2811 24 h, then 100 nM dex 8 h
Protocol: RNA was isolated using TRIzol (Invitrogen) according to the manufacturer's instructions. Reverse transcription reaction was performed using Superscript III (ThermoFisher) according to specifications with 1 μg of total RNA as template. Quantitative PCR amplification of the resulting cDNA was performed on a Roche LightCycler 480 using SYBR green I master mix (Roche). mRNA levels were normalized to the level of b-actin mRNA.
(§2) FIGS. 40A, 40B, 40C, 40D-1, 40D-2, 40D-3, and 40D-4 show Aurora kinase B inhibitors sensitizing NALM6 cells to GC-induced cell death. As shown in FIGS. 40A and 40B, NALM6 cells were treated with the indicated dex concentration in addition to 0.75 μM ZM447439 (FIG. 40A), 16 nM AZD2811 (FIG. 40B), or equivalent volume of vehicle DMSO for 72 h, and cell survival was measured by a fluorescence metabolic assay. In each condition, the value measured with dex was normalized to the fluorescence value measured with ethanol. Percentage of survival is shown as the mean±SEM of 4 independent experiments and p-values for individual dex concentrations were calculated using a paired t-test. *p≤0.05, **p≤0.01, * * *p≤0.001. F-test comparing the two curves: p≤0.001. Insets show the EC50s that were calculated as the concentration at which half the cells remained alive, compare to vehicle controls. Error bars depict the SEM of 4 independent experiments and p-values were calculated to compare AURKB inhibitor treatment to DMSO using a paired t-test ** p≤0.01, * * *p≤0.001. […] The indicated proteins were then examined by immunoblot. As shown in FIGS. 40D-1, 40D-2, 40D-3, and 40D-4, NALM6 cells pre-treated with AZD2811 (16 nM) or DMSO for 24 h, were then treated for 8 h with 100 nM dex or ethanol. mRNA levels for the indicated GR target genes were measured by RT-qPCR and normalized to β-actin mRNA levels.
FIGS. 54A, 54B, and 54C highlight the GR Target genes that require G9a and GLP as coactivators.

NALM6 cells [4] = assay: Cell death assay (Presto Blue, 72 h) with dex plus inhibitor; format: cell-based, human
Protocol: Cells were plated in CellStar low evaporation lid 96-well round-bottom plate at a density of 100,000 cells/ml. Directly after plating, cells were treated in triplicate with serial dilutions of dexamethasone or vehicle control (0.1% ethanol). After 72 h, cell viability of each well was analyzed in duplicate using the Presto Blue Assay Reagent (Life Technologies). Fluorescence was measured and data were analyzed with Prism6 software.
as §2
FIGS. 48A, 48B, 48C, 48D, 48E, and 48F show the effect of AURKB inhibitors on EHMT2 phosphorylation and dex-induced cell death. […] In each condition, the value measured with dex was normalized to the fluorescence value measured with ethanol. Percentage of survival is shown as the mean±SEM of 4 independent experiments and p-values for individual dex concentrations were calculated using a paired t-test. *p≤0.05, **p≤0.01, * * *p≤0.001. F-test comparing the two curves: p≤0.001. EC50s were calculated as the concentration at which half the cells remained alive, compare to vehicle controls. Error bars depict the SEM of 4 independent experiments and p-value was calculated to compare ZM treatment to DMSO using a paired t-test **p≤0.01, * * *p≤0.001. […] EC50s were calculated as the concentration at which half the cells remained alive, compare to vehicle controls. Error bars depict the SEM of 4 independent experiments and p-value was calculated to compare alisertib treatment to DMSO using a paired t-test. […] (E-F) RCH-ACV cells were treated with the indicated dex concentration in addition to 0.75 μM ZM447439 (FIG. 48E), 16 nM AZD2811 (FIG. 48F), or DMSO for 72 h, and cell survival was measured by a fluorescence metabolic assay. In each condition, the value measured with dex was normalized to the fluorescence value measured with ethanol. Percentage of survival is shown as the mean±SEM of 5 individual experiments and the p-value for each dex concentration was calculated using a paired t-test. *p≤0.05, **p≤0.01, * * *p≤0.001. F-test comparing the two curves: p≤0.001.
FIGS. 55A, 55B, and 55C show JIB-04 enhances GC-induced death of B-ALL cell line NALM6.

G9a methylation = G9a methylation level in NALM6 cells treated with KDM inhibitors; format: cell-based, human
Excerpt: There are two distinct families of KDM with distinct catalytic mechanisms (FIG. 50B). We tested one inhibitor for each family: OG-L002 inhibits the two members of the LSD family of KDM, and JIB-04 inhibits several members of the large JmjC family of KDM, including members of the KDM2, KDM3, and KDM4 subfamilies. We propose that there is an equilibrium between the enzymes that methylate G9a and GLP (in this case they methylate themselves) and the KDM enzymes to maintain a moderate level of G9a/GLP methylation (FIGS. 50C-1, 50C-2), and that inhibition of the KDMs that normally demethylate G9a and GLP (currently unknown) will increase the level of G9a/GLP methylation and thereby enhance the coactivator activity of G9a/GLP, the GC activation of the cell death genes, and GC-induced cell death in B-ALL cells. Thus, as a first step to identify the G9a/GLP-specific demethylases, we treated NALM6 cells with the two inhibitors named above. OG-L002 had no effect on the level of G9a methylation, but JIB-04 increased the level of G9a methylation in NALM6 cells (FIG. 50D).

| Compound | phosphorylation of EHMT2 (EHMT2 phosphorylation) | cell survival compared with the vehicle-treated control ([1]; 16 nM AZD2811 alone, 3 or 5 days) | cell survival ([1]; 16 nM AZD2811 in combination with 0.1 nM dex, 3 or 5 days) | dex sensitivity of the two dex-resistant primary B-ALL lines ([1]; 16 nM AZD2811 with dex) | cleavage of apoptotic markers in dex-treated NALM6 (NALM6 cells [2]) | dex-induced expression of dex-effector genes that utilize EHMT2, EHMT1 and CBX3 [3] | dex-induced cell death (NALM6 cells [4]; NALM6, 16 nM AZD2811, 72 h) | level of G9a methylation (G9a methylation) | GC-induced death of NALM6 cells (NALM6 cells [4]; 72 hours with various dex concentrations plus KDM inhibitor) |
| --- | --- | --- | --- | --- | --- | --- | --- | --- | --- |
| CCN(CCO)CCCOc1ccc2c(Nc3cc(CC(=O)Nc4cccc(F)c4)[nH]n3)ncnc2c1 [AZD2811] | decreased | 70-80% | 10-40% | dramatically enhanced | increased | enhanced | enhanced | – | – |
| N[C@H]1C[C@@H]1c1ccc(-c2cccc(O)c2)cc1 [OG-L002, 3-[4-[(1R,2S)-2-aminocyclopropyl]phenyl]phenol] | – | – | – | – | – | – | – | no effect | no effect |
